# Results from patent US11242340B2, “Crystal forms of demethyleneberberine hydrochloride and preparation method therefor” (priority 2018, dated 2022).
# Entries after “also recorded” stand apart in the source; their conditions may differ. Counter-ions that a name gives are not always drawn.
# What was measured:
# [1] = Stability in high-temperature experiment (60±2° C.); format: physicochemical; conditions: for X-Ray Powder Diffraction / Content (%) / Content of Relevant Substance (%) / Stability in the high-temperature environment: 60±2° C.; for Stability in the high-temperature environment / Stability under stability test conditions (summary): hydrochloride; for Stability under stability test conditions (summary): summary over high temperature, high humidity and strong light irradiation
# Experimental: Demethyleneberberine hydrochloride crystals A, B, C and D are taken in an appropriate amount and placed in plates numbered as A1, B1, C1 and D1 respectively, and then the plates are placed in a high-temperature environment at 60±2° C. respectively for stability test.
# [2] = Stability in high-humidity experiment (RH90±5%); format: physicochemical
# Description: Demethyleneberberine hydrochloride crystals A, B, C and D are taken in an appropriate amount and placed in plates numbered as A2, B2, C2 and D2 respectively, and then the plates are placed in a high-humidity environment at RH90±5% respectively for stability test.
# [3] = Stability in strong light irradiation experiment (4,500 lx±500 lx); format: physicochemical; conditions: for Stability in the strong light irradiation environment: hydrochloride
# Description: Demethyleneberberine hydrochloride crystals A, B, C and D are taken in an appropriate amount and placed in plates numbered as A3, B3, C3 and D3 respectively, and then the plates are placed in a strong light irradiation environment at 4,500 lx±500 lx respectively for stability test.
# [4] = Solubility in water system at different temperatures, HPLC; format: physicochemical; conditions: hydrochloride; for Solubility comparison of the four crystal forms (summary): summary over water, methanol and ethanol systems; for Solubility ranking among the four crystal forms: water system, different temperatures, FIG. 13
# Experimental: Demethyleneberberine hydrochloride crystals A, B, C and D are taken in an appropriate amount and the solubility of demethyleneberberine hydrochloride crystals A, B, C and D at different temperatures in a water system is studied respectively. 20 μl of sample is taken at each temperature node and detected by HPLC.
# [5] = Solubility in methanol system at different temperatures, HPLC; format: physicochemical; conditions: FIG. 14, hydrochloride
# Experimental: Demethyleneberberine hydrochloride crystals A, B, C and D are taken in an appropriate amount and the solubility of demethyleneberberine hydrochloride crystals A, B, C and D at different temperatures in a methanol system is studied respectively. 20 μl of sample is taken at each temperature node and detected by HPLC.
# [6] = Solubility in ethanol system at different temperatures, HPLC; format: physicochemical; conditions: FIG. 15, hydrochloride
# Experimental: Demethyleneberberine hydrochloride crystals A, B, C and D are taken in an appropriate amount and the solubility of demethyleneberberine hydrochloride crystals A, B, C and D at different temperatures in an ethanol system is studied respectively. 20 μl of sample is taken at each temperature node and detected by HPLC.
# [7] = Determination of blood concentration in rats after ig administration; format: in vivo; conditions: male SD rats, ig 200 mg/kg, plasma, hydrochloride; for AUC: calculated from the experimental results
# Experimental: Male SD rats are adaptively bred for 3 days, and rats having (220±20) g body weight are selected and divided into 5 groups, namely, blank group, demethyleneberberine hydrochloride crystal form A group, demethyleneberberine hydrochloride crystal form B group, demethyleneberberine hydrochloride crystal form C group and demethyleneberberine hydrochloride crystal form D group. Food supply is stopped for 12 h for gastric emptying before the experiment. For the rats in the experimental groups, ig (intragastric) administration dosage is 200 mg/kg. 0.2 ml of blood is taken from the orbits of the rats at 5 min., 15 min., 30 min., 1 h, 2 h, 6 h and 12 h respectively after ig administration, the whole blood is centrifuged, and 100 μl of plasma is taken and frozen at −20° C. for use later. 100 μl of plasma sample is taken, 200 μl of methanol is added into the plasma sample, the mixture is vortexed for 5 min., and then centrifuged at 10,000 r/min. for 15 min. in a centrifuge; the supernatant is taken and tested by HPLC. […] Through calculation on the basis of the experimental results, it is determined: DAUC=3.675 μg×ml^−1×h>AAUC=1.247 μg×ml^−1×h>BAUC=1.150 μg×ml^−1×h>CAUC=1.077 μg×ml^−1×h.
# [8] = day 0, listed as C1, hydrochloride
# [9] = day 5, listed as C1, hydrochloride
# [10] = day 10, listed as C1, hydrochloride
# [11] = day 0, listed as C2, hydrochloride
# [12] = day 5, listed as C2, hydrochloride
# [13] = day 10, listed as C2, hydrochloride
# [14] = day 0, listed as C3, hydrochloride
# [15] = day 5, listed as C3, hydrochloride
# [16] = day 10, listed as C3, hydrochloride
# [17] = day 0, listed as A1, hydrochloride
# [18] = day 5, listed as A1, hydrochloride
# [19] = day 10, listed as A1, hydrochloride
# [20] = day 0, listed as A2, hydrochloride
# [21] = day 5, listed as A2, hydrochloride
# [22] = day 10, listed as A2, hydrochloride
# [23] = day 0, listed as A3, hydrochloride
# [24] = day 5, listed as A3, hydrochloride
# [25] = day 10, listed as A3, hydrochloride
compound,measurement,setting,value
"COc1ccc2cc3[n+](cc2c1OC)CCc1cc(O)c(O)cc1-3 [crystal form C, demethyleneberberine hydrochloride]",X-Ray Powder Diffraction,[1]; day 0,Unchanged
same,Content (%),[1]; [8],99.18%
same,Content of Relevant Substance (%),[1]; [8],0.82%
same,X-Ray Powder Diffraction,[1]; day 5,Unchanged
same,Content (%),[1]; [9],99.21%
same,Content of Relevant Substance (%),[1]; [9],0.79%
same,Content (%),[1]; [10],99.19%
same,Content of Relevant Substance (%),[1]; [10],0.81%
same,X-Ray Powder Diffraction,[1]; [10],Unchanged
same,Stability in the high-temperature environment,[1],relatively stable
same,Stability under stability test conditions (summary),[1],stable
same,Stability in the high-humidity environment,[2],relatively stable
same,X-Ray Powder Diffraction,[2]; day 0,Unchanged
same,Content (%),[2]; [11],99.77%
same,Content of Relevant Substance (%),[2]; [11],0.23%
same,X-Ray Powder Diffraction,[2]; day 5,Unchanged
same,Content (%),[2]; [12],99.72%
same,Content of Relevant Substance (%),[2]; [12],0.28%
same,X-Ray Powder Diffraction,[2]; day 10,Unchanged
same,Content (%),[2]; [13],99.57%
same,Content of Relevant Substance (%),[2]; [13],0.43%
same,X-Ray Powder Diffraction,[3]; day 0,Unchanged
same,Content (%),[3]; [14],99.57%
same,Content of Relevant Substance (%),[3]; [14],0.43%
same,X-Ray Powder Diffraction,[3]; day 5,Unchanged
same,Content (%),[3]; [15],99.49%
same,Content of Relevant Substance (%),[3]; [15],0.51%
same,Content (%),[3]; [16],99.55%
same,Content of Relevant Substance (%),[3]; [16],0.45%
same,X-Ray Powder Diffraction,[3]; [16],Unchanged
same,Stability in the strong light irradiation environment,[3],relatively stable
same,Solubility comparison of the four crystal forms (summary),[4],highest; also recorded: >solubility of crystal form B of demethyleneberberine hydrochloride
same,Solubility ranking among the four crystal forms,[4],>solubility of crystal form B of demethyleneberberine hydrochloride
same,Solubility ranking among the four crystal forms,[5],>solubility of crystal form B of demethyleneberberine hydrochloride
same,Solubility ranking among the four crystal forms,[6],>solubility of crystal form B of demethyleneberberine hydrochloride
same,AUC,[7],1077 ng·h/mL
same,Cmax,[7],1262 ng/mL
same,tmax,[7],30 min
"COc1ccc2cc3[n+](cc2c1OC)CCc1cc(O)c(O)cc1-3 [crystal form A, demethyleneberberine hydrochloride]",X-Ray Powder Diffraction,[1]; day 0,Unchanged
same,Content (%),[1]; [17],99.62%
same,Content of Relevant Substance (%),[1]; [17],0.38%
same,X-Ray Powder Diffraction,[1]; day 5,Unchanged
same,Content (%),[1]; [18],99.63%
same,Content of Relevant Substance (%),[1]; [18],0.37%
same,Content (%),[1]; [19],99.61%
same,Content of Relevant Substance (%),[1]; [19],0.39%
same,X-Ray Powder Diffraction,[1]; [19],Unchanged
same,Stability in the high-temperature environment,[1],relatively stable
same,Stability under stability test conditions (summary),[1],stable
same,Stability in the high-humidity environment,[2],relatively stable
same,X-Ray Powder Diffraction,[2]; day 0,Unchanged
same,Content (%),[2]; [20],99.62%
same,Content of Relevant Substance (%),[2]; [20],0.38%
same,X-Ray Powder Diffraction,[2]; day 5,Unchanged
same,Content (%),[2]; [21],99.58%
same,Content of Relevant Substance (%),[2]; [21],0.42%
same,X-Ray Powder Diffraction,[2]; day 10,Unchanged
same,Content (%),[2]; [22],99.60%
same,Content of Relevant Substance (%),[2]; [22],0.40%
same,X-Ray Powder Diffraction,[3]; day 0,Unchanged
same,Content (%),[3]; [23],99.62%
same,Content of Relevant Substance (%),[3]; [23],0.38%
same,X-Ray Powder Diffraction,[3]; day 5,Unchanged
same,Content (%),[3]; [24],99.61%
same,Content of Relevant Substance (%),[3]; [24],0.39%
same,Content (%),[3]; [25],99.60%
same,Content of Relevant Substance (%),[3]; [25],0.40%
same,X-Ray Powder Diffraction,[3]; [25],Unchanged
same,Stability in the strong light irradiation environment,[3],relatively stable
same,Solubility comparison of the four crystal forms (summary),[4],>solubility of crystal form D of demethyleneberberine hydrochloride
same,Solubility ranking among the four crystal forms,[4],>solubility of crystal form D of demethyleneberberine hydrochloride
same,Solubility ranking among the four crystal forms,[5],>solubility of crystal form D of demethyleneberberine hydrochloride
same,Solubility ranking among the four crystal forms,[6],>solubility of crystal form D of demethyleneberberine hydrochloride
same,AUC,[7],1247 ng·h/mL
same,Cmax,[7],292 ng/mL
